Our source for the EC50 values is PubChem BioAssay AID2745 (NMMLSC, 2010).

Structures are written as SMILES. pEC50: −log10 of the molar value. Several values for one entry are separate records, joined by “and”; a condition that tells them apart may be missing. Equal entries are not always repeated.

The test system of the experiment is S. cerevisiae LAP4-GFP reporter, flow cytometry fluorescence. In words: concentration series on yeast TOR reporter LAP4 – cell-based, MLPCN hits, flow cytometry, dose response (AID 2745).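 Note: yeast exposed to compound for three hours at 30 degrees.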 On the technique in general: Flow cytometry measures light scatter and fluorescence of single cells or particles in a stream.
For the compound `Cc1ccccc1N=Nc1ccc(O)c2ncccc12`, the pEC50 was 5.10.

In the case of `Cc1cc(C(=O)COC(=O)c2ccc[nH]c2=O)c(C)n1-c1ccccc1F`, the pEC50 is 6.06.

For the compound `O=c1/c(=C/c2cccc3ccccc23)sc2ncnn12`, the negative logarithm of the EC50 (pEC50) is 5.04.

On to `COc1ccc(C(=O)NC(=S)NNC(=O)c2cnccn2)cc1`, for which the pEC50 is 5.88.

As for `O=[N+]([O-])c1ccc(N=Nc2c(Cl)cc(O)cc2Cl)cc1`, the negative-log EC50 (pEC50) is 5.30.

`CSC1=NS(=O)(=O)c2c(C)nn(C)c2S1`: the pEC50 is 4.56.

On to `COc1cccc(/C=N/Nc2ccc([N+](=O)[O-])cn2)c1O`, for which the negative logarithm of the EC50 (pEC50) was 5.24.

As for `COc1cc(SSc2cc(OC)cc([N+](=O)[O-])c2N)c(N)c([N+](=O)[O-])c1`, the pEC50 is 5.08.

As for `O=C(C#Cc1ccccc1)c1ccco1`, the pEC50 was 5.29.

In the case of `Cc1ccc(/C=C/C(=O)c2ccccc(=O)c2O)c(C)c1`, the negative logarithm of the EC50 (pEC50) is 5.38.

`O=C1C=CC(=O)N1c1ccc(N2CCCCC2)cc1`: the pEC50 is 5.91.

Consider `CC(C)Oc1ccc(C(=O)/C=C2/C(=O)Nc3ccccc32)cc1`, for which the pEC50 is 5.03.

On to `CCOc1ccc(N2C(=O)/C(=C\c3cccs3)C(=O)NC2=S)cc1`, for which the negative logarithm of the EC50 (pEC50) is 5.71.

For `O=C(OCn1ncc(Br)c(Br)c1=O)c1ccc(F)cc1`, the pEC50 is 4.72.

With `O=[N+]([O-])c1ccc(O)c2ncccc12`, the pEC50 is 6.22 and 6.12.

Take `COc1ccccc1OCCCc1c(C)n[nH]c1C`: the pEC50 was 4.70.

For the compound `CCOC(=O)c1ccc(N=Cc2nc(-c3ccccc3)oc2OC(C)=O)cc1`, the negative-log EC50 (pEC50) is 4.59.

For `O=C1C2C3C=CC(CO)(O3)C2C(=O)N1c1ccc(-c2ccccc2)cc1` (stereo not drawn), the pEC50 was 5.82.

As for `O=C1c2ccccc2C(=O)C2OC12` (stereo not drawn), the negative-log EC50 (pEC50) was 4.71.

As for `Cc1ccsc1/C=C1\C(=O)NC(=S)N(C)C1=O`, the pEC50 was 6.49.

`O=[N+]([O-])c1cc(F)c2cccnc2c1O`: the pEC50 is 5.93.

In the case of `CCOC(=O)COc1ccc2ccccc2c1/C=C/[N+](=O)[O-]`, the pEC50 was 5.36.

For `O=C1ON=C(c2ccccc2)/C1=C/c1ccc(-c2ccccc2[N+](=O)[O-])o1`, the negative logarithm of the EC50 (pEC50) was 5.30.

For `CC(=O)SC(C[N+](=O)[O-])c1cn(C(C)=O)c2ccccc12` (stereo not drawn), the negative-log EC50 (pEC50) was 4.97.

For `Cc1cc(O)c(C(=O)/C=C/c2ccc(Cl)cc2)c(=O)o1`, the pEC50 is 5.19.

For the compound `CCSc1nnc(NC(=O)c2ccccn2)s1`, the pEC50 was 4.52.

As for `N/C(Cc1ccc(Cl)cc1)=N\OC(=O)c1ccccc1`, the pEC50 was 5.36.

For the compound `Cc1cc(C(=O)Nc2nc(-c3ccccn3)cs2)ccc1[N+](=O)[O-]`, the negative-log EC50 (pEC50) is 5.21.

For the compound `O=C(/C=C/c1ccc(F)cc1)NC(=S)NNC(=O)c1cnccn1`, the pEC50 is 5.81.

Regarding `COc1ccc(/C=C/C(=O)C2C(=O)C=C(C)OC2=O)cc1O` (stereo not drawn), the negative logarithm of the EC50 (pEC50) was 4.93.

As to `Cc1ccc2nc(Cl)c3nnnn3c2c1`, the pEC50 is 5.42.

`Cc1ccc(NN2C(=O)C=C(c3ccc(Cl)cc3)C2=O)cc1`: the negative-log EC50 (pEC50) was 6.16.

Turning to `O=C(OCn1ncc(Br)c(Br)c1=O)c1c(F)cccc1F`, the negative logarithm of the EC50 (pEC50) is 4.77.

Regarding `Cc1ccc(S(=O)(=O)c2ccc([N+](=O)[O-])cn2)cc1`, the pEC50 was 4.83.

Take `CC1(C)C[C@H]2C=C(C=O)[C@]3(C=O)C[C@]3(C)[C@H]2C1`: the negative-log EC50 (pEC50) is 6.06.

`Cc1cccnc1Nc1nc(-c2ccccn2)cs1`: the negative logarithm of the EC50 (pEC50) was 5.43.

For the compound `Cc1ccc(C(c2cc(Cl)c3cccnc3c2O)N2CCN(C)CC2)cc1` (stereo not drawn), the pEC50 was 5.66.

On to `CNc1nc(N)c([N+](=O)[O-])c(Nc2cccc(F)c2)n1`, for which the pEC50 is 5.26.

Turning to `COc1cccc2sc(Nc3nc(-c4ccccn4)cs3)nc12`, the negative logarithm of the EC50 (pEC50) is 5.87.

For `CCn1c(=O)c(C(=O)Nc2nc3ccccc3[nH]2)c(O)c2ccccc21`, the pEC50 is 6.35.

Turning to `Nc1ccc(Br)c2c1C(=O)c1ccccc1C2=O`, the negative logarithm of the EC50 (pEC50) was 5.93.

Take `Cc1cc(C2CCCCC2)n(O)c(=O)c1`: the pEC50 is 5.27.

As to `O=[N+]([O-])c1ccc(O)c(/C=N/Nc2ccccn2)c1`, the negative logarithm of the EC50 (pEC50) was 4.90.

With `O=C(Oc1ccnc2cc(Cl)ccc12)N1CCCCCC1`, the negative logarithm of the EC50 (pEC50) is 4.92.

Take `O=c1[nH]c(-c2ccccn2)nc(C(F)(F)F)c1Br`: the pEC50 was 5.59.

Take `Clc1ccc(N=c2ssnc2Cl)cc1`: the pEC50 was 4.71.

Turning to `CCCCS(=O)(=O)/C=C\C=C/S(=O)(=O)CCCC`, the pEC50 is 5.59.

Turning to `CC(Oc1cccc(Cl)c1)C(=O)Nc1nc(-c2ccccn2)cs1` (stereo not drawn), the pEC50 is 4.60.

Consider `Cc1cc(C)c(S(=O)(=O)ON2C(=O)c3ccccc3C2=O)cc1C`, for which the negative-log EC50 (pEC50) was 5.51.

Regarding `Cc1ccc(NC(=O)c2ccc(Cl)c(N3C(=O)C=CC3=O)c2)cc1`, the negative-log EC50 (pEC50) was 5.80.

For `N/C(Cc1ccc(Cl)cc1)=N\OC(=O)c1cccc2ccccc12`, the pEC50 is 5.73.

On to `O=c1cc(CSc2ccc(Cl)cc2)nc(-c2ccccn2)[nH]1`, for which the pEC50 was 5.20.

`Cc1ccc(C(=O)NNC(=S)NC(=O)COc2ccccc2)cc1`: the pEC50 was 5.08.

For `Cc1ccc(N/N=C(\C#N)C(N)=S)c(C)c1`, the negative-log EC50 (pEC50) is 4.93.

Regarding `O=C1Oc2ccccc2C(=O)/C1=C/c1ccccc1O`, the pEC50 is 5.43.

`Cc1[nH]n(-c2ccccc2)c(=O)c1C(c1ccccc1[N+](=O)[O-])C(C#N)C#N` (stereo not drawn): the pEC50 was 5.12.

Regarding `N/C(Cc1ccc(Cl)cc1Cl)=N\OC(=O)c1cccs1`, the negative-log EC50 (pEC50) is 5.35.

In the case of `COc1cc(/C=C2\C(=O)N(CCC#N)N=C2C)c(Br)cc1OC(C)C`, the pEC50 is 5.38.

With `O=C1NC(=S)NC(=O)C1=Cc1ccc2c(c1)CCN2CCCCl`, the negative logarithm of the EC50 (pEC50) is 5.39.

Regarding `O=C(c1ccc(C(=O)N2CCCc3ccccc32)s1)N1CCCc2ccccc21`, the pEC50 was 5.11.

In the case of `O=C(/C=C/c1ccc(Cl)c([N+](=O)[O-])c1)c1cccnc1`, the pEC50 is 4.54.

With `COc1cccc(C(=O)Nc2nnc(-c3ccc(Cl)cc3)o2)c1`, the negative logarithm of the EC50 (pEC50) was 5.42.

As for `O=c1oc2cc(Oc3c([N+](=O)[O-])cc(C(F)(F)F)cc3[N+](=O)[O-])ccc2c2c1CCCC2`, the pEC50 is 5.52.

`O=[N+]([O-])c1cc(Cl)c2cccnc2c1O`: the pEC50 was 6.07.

Turning to `Cc1c(C(=O)Nc2nc(-c3ccccn3)cs2)oc2ccccc12`, the pEC50 is 5.40.

For the compound `Cc1cccc2c1NC(=O)/C2=C\C(=O)c1cccs1`, the pEC50 was 5.25.

On to `COc1ccc(C(c2c(C)[nH]n(C(N)=S)c2=O)C(C#N)C#N)cc1` (stereo not drawn), for which the pEC50 is 5.68.

With `Cc1cccc(Nc2nc(-c3ccccn3)cs2)n1`, the negative logarithm of the EC50 (pEC50) was 5.42.

Consider `CC1=NNC(=O)/C1=C\c1cn(-c2ccccc2)nc1-c1cccs1`, for which the pEC50 is 5.88.

Regarding `O=S(=O)(CCN(CCS(=O)(=O)C(F)(F)F)CC1CCCO1)C(F)(F)F` (stereo not drawn), the pEC50 was 5.12.

For `COc1ccc(/C=C/C(=O)NC(=S)NNC(=O)c2cnccn2)cc1`, the pEC50 was 5.88.

With `CCOC(=O)/C(=C\c1cn(C)c2ccccc12)[N+](=O)[O-]`, the negative logarithm of the EC50 (pEC50) was 5.65.

Regarding `O=C(Oc1c(Cl)cc(Cl)c2cccnc12)c1cccc([N+](=O)[O-])c1`, the negative-log EC50 (pEC50) was 5.69.

For `O=[N+]([O-])c1ccc(S(=O)(=O)c2cccc(C(F)(F)F)c2)nc1`, the pEC50 was 4.67.

With `Cc1ccc(/C=C2\C(=O)NC(=S)N(c3ccc(F)cc3)C2=O)s1`, the pEC50 is 5.94.

As for `Oc1c(I)cc(I)c2cccnc12`, the negative-log EC50 (pEC50) was 6.15.

With `COc1cccc(N=Nc2ccc(O)c3ncccc23)c1`, the pEC50 is 5.47.

On to `CCCOc1ccc(C(=O)NNC(=S)NC(=O)CC)cc1`, for which the negative-log EC50 (pEC50) is 4.94.

Regarding `Cc1ccc(/C=C2/C(=O)ON=C2c2ccccc2)o1`, the pEC50 was 5.46.

`N#Cc1nccnc1S(=O)(=O)c1cccs1`: the negative-log EC50 (pEC50) was 4.85.

In the case of `CCCOc1ccc(C(=O)NNC(=S)NC(=O)c2ccco2)cc1`, the pEC50 was 4.88.

Regarding `COc1ccc(C2=CC(=O)N(Nc3ccccc3)C2=O)cc1`, the pEC50 was 5.01.

Turning to `O=C(O)/C=C/C(=O)c1ccc2c(c1)CCc1ccccc1-2`, the negative-log EC50 (pEC50) was 5.92.

In the case of `Cn1c(=O)c(C(=O)NNC(=O)c2ccc(Br)cc2)c(O)c2ccccc21`, the pEC50 was 6.12.

For `O=C1C=CC(=O)N1N(c1ccccc1)c1ccccc1`, the pEC50 was 5.57.

As for `COc1ccc([N+](=O)[O-])c(S(=O)(=O)c2ccc(Cl)cc2)n1`, the negative-log EC50 (pEC50) was 5.70.

As for `Cc1ccc(S(=O)(=O)ON2C(=O)c3ccccc3C2=O)c(C)c1`, the pEC50 was 5.41.

Turning to `O=C(Nc1nc(-c2ccccn2)cs1)C1COc2ccccc2O1` (stereo not drawn), the pEC50 was 5.41.

On to `O=S1(=O)C=C(Sc2nc3ccccc3s2)c2ccccc21`, for which the negative-log EC50 (pEC50) is 5.48.

As for `Cc1ccc(S(=O)(=O)c2ncccc2[N+](=O)[O-])cc1`, the pEC50 is 4.84.

For the compound `Clc1cccc(CN2COc3c(cc(Cl)c4cccnc34)C2)c1`, the negative logarithm of the EC50 (pEC50) is 5.07.

Turning to `CCc1ccc2c(c1)/C(=C/C(=O)c1cccs1)C(=O)N2`, the pEC50 was 5.39.

Turning to `O=C(/C=C/c1ccccn1)c1cc(Br)ccc1O`, the pEC50 is 5.39.

On to `Oc1ccc2ccccc2c1N=Nc1nccs1`, for which the pEC50 is 5.07.

In the case of `CC(Oc1ccc(Br)cc1)C(=O)Nc1nc(-c2ccccn2)cs1` (stereo not drawn), the negative logarithm of the EC50 (pEC50) was 5.40.

With `CC1=NOC(=O)/C1=C\c1ccc(-c2cc(Cl)ccc2Cl)o1`, the pEC50 was 4.57.

For the compound `CS(=O)(=O)c1nc(-c2cccs2)cc(C(F)(F)F)n1`, the pEC50 is 4.52.

With `CCOC(=O)CSC1=NC(=O)/C(=C/c2ccc(Br)cc2)S1`, the pEC50 is 4.82.

Take `Cc1c(Cc2ccccc2)c(NCCN(C)C)n2c(nc3ccccc32)c1C#N`: the negative logarithm of the EC50 (pEC50) was 4.52.

With `COc1ccc(N=Nc2ccc(O)c3ncccc23)cc1`, the negative-log EC50 (pEC50) was 5.19.

`Oc1ccc(Br)cc1/C=N/Nc1ccccn1`: the pEC50 is 4.64.

As to `CCCCCCCCn1sccc1=O`, the negative logarithm of the EC50 (pEC50) was 6.04.

Regarding `O=[N+]([O-])c1cc(Cl)cc(/C=N\Nc2ccccn2)c1O`, the pEC50 is 5.48.

In the case of `O=C1C=C(c2ccccc2)C(=O)N1Nc1ccccc1`, the pEC50 was 5.79.

With `N=C1S/C(=C\c2ccco2)C(=O)N1c1nccs1`, the negative-log EC50 (pEC50) was 5.40.

Regarding `ClC(Cl)(c1nnnn1-c1ccccc1)c1nnnn1-c1ccccc1`, the negative-log EC50 (pEC50) is 5.42.

In the case of `Cn1ncc(S(=O)(=O)Cc2ccccc2)c(Cl)c1=O`, the pEC50 is 5.40.

Regarding `CCOC(=O)c1cc(-c2ccc(/C=C3/C(=O)NC(=O)C(C#N)=C3C)o2)ccc1Cl`, the pEC50 was 5.87.

For orientation: pEC50 means −log10 of the EC50, conventionally taken in molar units.
